Results as given in the CheMixHub viscosity set.
± gives the uncertainty stated by the source.

Assay: xn = mol fraction of the nth substance listed

Cn1cc[n+](CCC[n+]2ccccc2)c1.[Br-].[Br-] + O
viscosity (293.15 K, 101 kPa, x1 = 0.0003405): 1.016 ± 0.022 mPa·s
viscosity (293.15 K, 101 kPa, x1 = 0.0004322): 1.019 ± 0.022 mPa·s
viscosity (293.15 K, 101 kPa, x1 = 0.0005421): 1.021 ± 0.022 mPa·s
viscosity (293.15 K, 101 kPa, x1 = 0.000689): 1.023 ± 0.022 mPa·s
viscosity (293.15 K, 101 kPa, x1 = 0.0008251): 1.032 ± 0.022 mPa·s
viscosity (293.15 K, 101 kPa, x1 = 0.0009589): 1.035 ± 0.022 mPa·s
viscosity (293.15 K, 101 kPa, x1 = 0.001109): 1.038 ± 0.022 mPa·s
viscosity (293.15 K, 101 kPa, x1 = 0.00128): 1.041 ± 0.022 mPa·s
viscosity (293.15 K, 101 kPa, x1 = 0.001457): 1.043 ± 0.022 mPa·s
viscosity (293.15 K, 101 kPa, x1 = 0.001664): 1.047 ± 0.022 mPa·s
viscosity (293.15 K, 101 kPa, x1 = 0.001904): 1.05 ± 0.022 mPa·s
viscosity (293.15 K, 101 kPa, x1 = 0.002122): 1.053 ± 0.022 mPa·s
viscosity (293.15 K, 101 kPa, x1 = 0.002357): 1.057 ± 0.022 mPa·s
viscosity (298.15 K, 101 kPa, x1 = 0.0003405): 0.905 ± 0.019 mPa·s
viscosity (298.15 K, 101 kPa, x1 = 0.0004322): 0.907 ± 0.019 mPa·s
viscosity (298.15 K, 101 kPa, x1 = 0.0005421): 0.909 ± 0.019 mPa·s
viscosity (298.15 K, 101 kPa, x1 = 0.000689): 0.911 ± 0.019 mPa·s
viscosity (298.15 K, 101 kPa, x1 = 0.0008251): 0.918 ± 0.02 mPa·s
viscosity (298.15 K, 101 kPa, x1 = 0.0009589): 0.921 ± 0.02 mPa·s
viscosity (298.15 K, 101 kPa, x1 = 0.001109): 0.924 ± 0.02 mPa·s
viscosity (298.15 K, 101 kPa, x1 = 0.00128): 0.927 ± 0.02 mPa·s
viscosity (298.15 K, 101 kPa, x1 = 0.001457): 0.93 ± 0.02 mPa·s
viscosity (298.15 K, 101 kPa, x1 = 0.001664): 0.933 ± 0.02 mPa·s
viscosity (298.15 K, 101 kPa, x1 = 0.001904): 0.936 ± 0.02 mPa·s
viscosity (298.15 K, 101 kPa, x1 = 0.002122): 0.939 ± 0.02 mPa·s
viscosity (298.15 K, 101 kPa, x1 = 0.002357): 0.942 ± 0.02 mPa·s
viscosity (303.15 K, 101 kPa, x1 = 0.0003405): 0.811 ± 0.017 mPa·s
viscosity (303.15 K, 101 kPa, x1 = 0.0004322): 0.814 ± 0.017 mPa·s
viscosity (303.15 K, 101 kPa, x1 = 0.0005421): 0.816 ± 0.017 mPa·s
viscosity (303.15 K, 101 kPa, x1 = 0.000689): 0.819 ± 0.017 mPa·s
viscosity (303.15 K, 101 kPa, x1 = 0.0008251): 0.827 ± 0.018 mPa·s
viscosity (303.15 K, 101 kPa, x1 = 0.0009589): 0.829 ± 0.018 mPa·s
viscosity (303.15 K, 101 kPa, x1 = 0.001109): 0.832 ± 0.018 mPa·s
viscosity (303.15 K, 101 kPa, x1 = 0.00128): 0.835 ± 0.018 mPa·s
viscosity (303.15 K, 101 kPa, x1 = 0.001457): 0.837 ± 0.018 mPa·s
viscosity (303.15 K, 101 kPa, x1 = 0.001664): 0.839 ± 0.018 mPa·s
viscosity (303.15 K, 101 kPa, x1 = 0.001904): 0.841 ± 0.018 mPa·s
viscosity (303.15 K, 101 kPa, x1 = 0.002122): 0.843 ± 0.018 mPa·s
viscosity (303.15 K, 101 kPa, x1 = 0.002357): 0.846 ± 0.018 mPa·s
viscosity (308.15 K, 101 kPa, x1 = 0.0003405): 0.734 ± 0.016 mPa·s
viscosity (308.15 K, 101 kPa, x1 = 0.0004322): 0.737 ± 0.016 mPa·s
viscosity (308.15 K, 101 kPa, x1 = 0.0005421): 0.739 ± 0.016 mPa·s
viscosity (308.15 K, 101 kPa, x1 = 0.000689): 0.742 ± 0.016 mPa·s
viscosity (308.15 K, 101 kPa, x1 = 0.0008251): 0.744 ± 0.016 mPa·s
viscosity (308.15 K, 101 kPa, x1 = 0.0009589): 0.747 ± 0.016 mPa·s
viscosity (308.15 K, 101 kPa, x1 = 0.001109): 0.749 ± 0.016 mPa·s
viscosity (308.15 K, 101 kPa, x1 = 0.00128): 0.752 ± 0.016 mPa·s
viscosity (308.15 K, 101 kPa, x1 = 0.001457): 0.755 ± 0.016 mPa·s
viscosity (308.15 K, 101 kPa, x1 = 0.001664): 0.758 ± 0.016 mPa·s
viscosity (308.15 K, 101 kPa, x1 = 0.001904): 0.761 ± 0.016 mPa·s
viscosity (308.15 K, 101 kPa, x1 = 0.002122): 0.763 ± 0.016 mPa·s
viscosity (308.15 K, 101 kPa, x1 = 0.002357): 0.766 ± 0.016 mPa·s
viscosity (313.15 K, 101 kPa, x1 = 0.0003405): 0.667 ± 0.014 mPa·s
viscosity (313.15 K, 101 kPa, x1 = 0.0004322): 0.669 ± 0.014 mPa·s
viscosity (313.15 K, 101 kPa, x1 = 0.0005421): 0.672 ± 0.014 mPa·s
viscosity (313.15 K, 101 kPa, x1 = 0.000689): 0.675 ± 0.014 mPa·s
viscosity (313.15 K, 101 kPa, x1 = 0.0008251): 0.678 ± 0.014 mPa·s
viscosity (313.15 K, 101 kPa, x1 = 0.0009589): 0.681 ± 0.015 mPa·s
viscosity (313.15 K, 101 kPa, x1 = 0.001109): 0.684 ± 0.015 mPa·s
viscosity (313.15 K, 101 kPa, x1 = 0.00128): 0.687 ± 0.015 mPa·s
viscosity (313.15 K, 101 kPa, x1 = 0.001457): 0.689 ± 0.015 mPa·s
viscosity (313.15 K, 101 kPa, x1 = 0.001664): 0.691 ± 0.015 mPa·s
viscosity (313.15 K, 101 kPa, x1 = 0.001904): 0.693 ± 0.015 mPa·s
viscosity (313.15 K, 101 kPa, x1 = 0.002122): 0.696 ± 0.015 mPa·s
viscosity (313.15 K, 101 kPa, x1 = 0.002357): 0.699 ± 0.015 mPa·s

CCCCN(CCCC)CCCC + CCCCCO
viscosity (303.15 K, 101.3 kPa, x1 = 0.0945): 2.622 ± 0.03 mPa·s
viscosity (303.15 K, 101.3 kPa, x1 = 0.1881): 2.405 ± 0.028 mPa·s
viscosity (303.15 K, 101.3 kPa, x1 = 0.2845): 2.18 ± 0.025 mPa·s
viscosity (303.15 K, 101.3 kPa, x1 = 0.3843): 1.961 ± 0.023 mPa·s
viscosity (303.15 K, 101.3 kPa, x1 = 0.4829): 1.786 ± 0.021 mPa·s
viscosity (303.15 K, 101.3 kPa, x1 = 0.6148): 1.581 ± 0.019 mPa·s
viscosity (303.15 K, 101.3 kPa, x1 = 0.7041): 1.458 ± 0.017 mPa·s
viscosity (303.15 K, 101.3 kPa, x1 = 0.798): 1.365 ± 0.016 mPa·s
viscosity (303.15 K, 101.3 kPa, x1 = 0.8912): 1.262 ± 0.015 mPa·s
viscosity (313.15 K, 101.3 kPa, x1 = 0.0945): 2.122 ± 0.025 mPa·s
viscosity (313.15 K, 101.3 kPa, x1 = 0.1881): 1.91 ± 0.022 mPa·s
viscosity (313.15 K, 101.3 kPa, x1 = 0.2845): 1.714 ± 0.02 mPa·s
viscosity (313.15 K, 101.3 kPa, x1 = 0.3843): 1.551 ± 0.018 mPa·s
viscosity (313.15 K, 101.3 kPa, x1 = 0.4829): 1.415 ± 0.017 mPa·s
viscosity (313.15 K, 101.3 kPa, x1 = 0.6148): 1.266 ± 0.015 mPa·s
viscosity (313.15 K, 101.3 kPa, x1 = 0.7041): 1.188 ± 0.014 mPa·s
viscosity (313.15 K, 101.3 kPa, x1 = 0.798): 1.118 ± 0.014 mPa·s
viscosity (313.15 K, 101.3 kPa, x1 = 0.8912): 1.054 ± 0.013 mPa·s

CC(=O)CC(C)=O + CCCCO
viscosity (303.15 K, 101 kPa, x1 = 0.0509): 1.941 ± 0.012 mPa·s
viscosity (303.15 K, 101 kPa, x1 = 0.1003): 1.7 ± 0.011 mPa·s
viscosity (303.15 K, 101 kPa, x1 = 0.3007): 1.142 ± 0.008 mPa·s
viscosity (303.15 K, 101 kPa, x1 = 0.5004): 0.887 ± 0.006 mPa·s
viscosity (303.15 K, 101 kPa, x1 = 0.7): 0.751 ± 0.005 mPa·s
viscosity (303.15 K, 101 kPa, x1 = 0.8998): 0.692 ± 0.005 mPa·s
viscosity (303.15 K, 101 kPa, x1 = 0.9504): 0.678 ± 0.005 mPa·s

C=CC#N + c1ccccc1
viscosity (307.4 K, 101.33 kPa, x2 = 0.0966): 0.494 ± 0.004 mPa·s
viscosity (307.4 K, 101.33 kPa, x2 = 0.2512): 0.448 ± 0.004 mPa·s
viscosity (307.4 K, 101.33 kPa, x2 = 0.4788): 0.395 ± 0.004 mPa·s
viscosity (307.4 K, 101.33 kPa, x2 = 0.5188): 0.386 ± 0.003 mPa·s
viscosity (307.4 K, 101.33 kPa, x2 = 0.6633): 0.357 ± 0.003 mPa·s
viscosity (307.4 K, 101.33 kPa, x2 = 0.8844): 0.32 ± 0.003 mPa·s

CCCCOC(=O)c1ccccc1C(=O)OCCCC + CCCCCCCCCCO
viscosity (303.15 K, 101.33 kPa, x1 = 0.1004): 8.572 ± 0.044 mPa·s
viscosity (303.15 K, 101.33 kPa, x1 = 0.1995): 8.061 ± 0.042 mPa·s
viscosity (303.15 K, 101.33 kPa, x1 = 0.3035): 7.851 ± 0.041 mPa·s
viscosity (303.15 K, 101.33 kPa, x1 = 0.4004): 7.91 ± 0.041 mPa·s
viscosity (303.15 K, 101.33 kPa, x1 = 0.4902): 8.075 ± 0.042 mPa·s
viscosity (303.15 K, 101.33 kPa, x1 = 0.5977): 8.479 ± 0.044 mPa·s
viscosity (303.15 K, 101.33 kPa, x1 = 0.6985): 9.095 ± 0.047 mPa·s
viscosity (303.15 K, 101.33 kPa, x1 = 0.7997): 9.985 ± 0.05 mPa·s
viscosity (303.15 K, 101.33 kPa, x1 = 0.8948): 11.18 ± 0.056 mPa·s

CCCCN(CCCC)CCCC + CCCCCCCCO
viscosity (303.15 K, 101.3 kPa, x1 = 0.0904): 5.287 ± 0.058 mPa·s
viscosity (303.15 K, 101.3 kPa, x1 = 0.1906): 4.464 ± 0.05 mPa·s
viscosity (303.15 K, 101.3 kPa, x1 = 0.2864): 3.765 ± 0.042 mPa·s
viscosity (303.15 K, 101.3 kPa, x1 = 0.4192): 2.935 ± 0.033 mPa·s
viscosity (303.15 K, 101.3 kPa, x1 = 0.5184): 2.43 ± 0.028 mPa·s
viscosity (303.15 K, 101.3 kPa, x1 = 0.6196): 2.025 ± 0.023 mPa·s
viscosity (303.15 K, 101.3 kPa, x1 = 0.7144): 1.723 ± 0.02 mPa·s
viscosity (303.15 K, 101.3 kPa, x1 = 0.8124): 1.487 ± 0.018 mPa·s
viscosity (303.15 K, 101.3 kPa, x1 = 0.8987): 1.33 ± 0.016 mPa·s
viscosity (313.15 K, 101.3 kPa, x1 = 0.0904): 3.767 ± 0.043 mPa·s
viscosity (313.15 K, 101.3 kPa, x1 = 0.1906): 3.171 ± 0.036 mPa·s
viscosity (313.15 K, 101.3 kPa, x1 = 0.2864): 2.698 ± 0.031 mPa·s
viscosity (313.15 K, 101.3 kPa, x1 = 0.4192): 2.185 ± 0.025 mPa·s
viscosity (313.15 K, 101.3 kPa, x1 = 0.5184): 1.872 ± 0.022 mPa·s
viscosity (313.15 K, 101.3 kPa, x1 = 0.6196): 1.619 ± 0.019 mPa·s
viscosity (313.15 K, 101.3 kPa, x1 = 0.7144): 1.424 ± 0.017 mPa·s
viscosity (313.15 K, 101.3 kPa, x1 = 0.8124): 1.25 ± 0.015 mPa·s
viscosity (313.15 K, 101.3 kPa, x1 = 0.8987): 1.128 ± 0.014 mPa·s
